Common to all, as to format: cell-based
For one experiment, the target named is T1, hFP (Homo sapiens, UniProt P43088).
T1 construct: expressed in transfected cells; host or cells: HEK-293(EBNA)
Kind of experiment: FLIPR calcium signal study, hFP. Particulars: HEK-293(EBNA) cells expressing recombinant human receptor, read-out: HFP functional data. The procedure:
(§1) Methods for FLIPR™ Studies (a) Cell Culture
(§2) HEK-293(EBNA) cells, stably expressing one type or subtype of recombinant human prostaglandin receptors (prostaglandin receptors expressed: hDP/Gqs5; hEP1; hEP2/Gqs5; hEP3A/Gqi5; hEP4/Gqs5; hFP; hIP; hTP), were cultured in 100 mm culture dishes in high-glucose DMEM medium containing 10% fetal bovine serum, 2 mM 1-glutamine, 250 μg/ml geneticin (G418) and 200 μg/ml hygromycin B as selection markers, and 100 units/ml penicillin G, 100 μg/ml streptomycin and 0.25 μg/ml amphotericin B.
(§3) (b) Calcium Signal Studies on the FLIPR™
(§4) Cells were seeded at a density of 5×10^4 cells per well in Biocoat® Poly-D-lysine-coated black-wall, clear-bottom 96-well plates (Becton-Dickinson) and allowed to attach overnight in an incubator at 37° C. Cells were then washed two times with HBSS-HEPES buffer (Hanks Balanced Salt Solution without bicarbonate and phenol red, 20 mM HEPES, pH 7.4) using a Denley Cellwash plate washer (Labsystems). After 45 minutes of dye-loading in the dark, using the calcium-sensitive dye Fluo-4 AM at a final concentration of 2 μM, plates were washed four times with HBSS-HEPES buffer to remove excess dye leaving 100 μl in each well. Plates were re-equilibrated to 37° C. for a few minutes.
(§5) Cells were excited with an Argon laser at 488 nm, and emission was measured through a 510-570 nm bandwidth emission filter (FLIPR™, Molecular Devices, Sunnyvale, Calif.). Drug solution was added in a 50 μl volume to each well to give the desired final concentration. The peak increase in fluorescence intensity was recorded for each well. On each plate, four wells each served as negative (HBSS-HEPES buffer) and positive controls (standard agonists: BW245C (hDP); PGE2 (hEP1; hEP2/Gqs5; hEP3A/Gqi5; hEP4/Gqs5); PGF2, (hFP); carbacyclin (hIP); U-46619 (hTP), depending on receptor). The peak fluorescence change in each drug-containing well was then expressed relative to the controls.
(§6) Compounds were tested in a high-throughput (HTS) or concentration-response (CoRe) format. In the HTS format, forty-four compounds per plate were examined in duplicates at a concentration of 10^−5 M. To generate concentration-response curves, four compounds per plate were tested in duplicates in a concentration range between 10^−5 and 10^−11 M. The duplicate values were averaged. In either, HTS or CoRe format each compound was tested on at least 3 separate plates using cells from different passages to give an n≧3.

The next experiment deals with T2, hEP4/Gqs5 (Homo sapiens, UniProt P35408).
T2 construct: expressed in transfected cells; host or cells: HEK-293(EBNA)
T2 sequence (P35408 whole entry): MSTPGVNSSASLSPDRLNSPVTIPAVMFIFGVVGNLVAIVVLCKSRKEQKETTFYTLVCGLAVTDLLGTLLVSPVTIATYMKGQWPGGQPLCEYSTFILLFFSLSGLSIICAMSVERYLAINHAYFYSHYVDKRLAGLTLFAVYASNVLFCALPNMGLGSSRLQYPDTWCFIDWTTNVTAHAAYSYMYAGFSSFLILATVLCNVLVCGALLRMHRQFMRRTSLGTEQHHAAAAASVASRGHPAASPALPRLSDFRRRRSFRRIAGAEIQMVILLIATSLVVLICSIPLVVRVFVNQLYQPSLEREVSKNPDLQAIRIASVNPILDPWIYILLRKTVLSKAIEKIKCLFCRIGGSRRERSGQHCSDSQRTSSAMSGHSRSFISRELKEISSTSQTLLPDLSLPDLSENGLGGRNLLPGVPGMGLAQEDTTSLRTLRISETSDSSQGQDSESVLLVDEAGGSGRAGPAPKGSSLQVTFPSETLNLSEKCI
Kind of experiment: FLIPR calcium signal study, hEP4/Gqs5. Particulars: HEK-293(EBNA) cells expressing recombinant human receptor, read-out: HEP4 functional data. The procedure: as §1, §2, §3, §4, §5, §6

For a further experiment, the target named is T3, hTP (Homo sapiens, UniProt P21731).
T3 construct: expressed in transfected cells; host or cells: HEK-293(EBNA)
T3 sequence (P21731 1-343): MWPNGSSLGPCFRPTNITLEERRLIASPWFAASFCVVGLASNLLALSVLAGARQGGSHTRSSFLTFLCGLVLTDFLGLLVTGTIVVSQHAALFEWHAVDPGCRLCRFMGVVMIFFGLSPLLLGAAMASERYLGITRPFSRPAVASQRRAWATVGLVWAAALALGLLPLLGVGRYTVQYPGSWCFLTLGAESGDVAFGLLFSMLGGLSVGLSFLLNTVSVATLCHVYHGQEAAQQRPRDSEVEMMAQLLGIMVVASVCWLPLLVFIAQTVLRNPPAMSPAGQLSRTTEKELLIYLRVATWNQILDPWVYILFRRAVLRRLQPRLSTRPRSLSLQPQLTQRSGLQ
Kind of experiment: FLIPR calcium signal study, hTP. Particulars: HEK-293(EBNA) cells expressing recombinant human receptor, read-out: HTP functional data. The procedure: as §1, §2, §3, §4, §5, §6

A further experiment addresses T4, hIP (Homo sapiens, UniProt P43119).
T4 construct: expressed in transfected cells; host or cells: HEK-293(EBNA)
Kind of experiment: FLIPR calcium signal study, hIP. Particulars: HEK-293(EBNA) cells expressing recombinant human receptor, read-out: HIP functional data. The procedure: as §1, §2, §3, §4, §5
Compounds were tested in a high-throughput (HTS) or concentration-response (CoRe) format. […]

In a further experiment the target is T5, hEP3A/Gqi5 (Homo sapiens, UniProt P43115).
T5 construct: expressed in transfected cells; host or cells: HEK-293(EBNA)
T5 sequence (P43115 1-390): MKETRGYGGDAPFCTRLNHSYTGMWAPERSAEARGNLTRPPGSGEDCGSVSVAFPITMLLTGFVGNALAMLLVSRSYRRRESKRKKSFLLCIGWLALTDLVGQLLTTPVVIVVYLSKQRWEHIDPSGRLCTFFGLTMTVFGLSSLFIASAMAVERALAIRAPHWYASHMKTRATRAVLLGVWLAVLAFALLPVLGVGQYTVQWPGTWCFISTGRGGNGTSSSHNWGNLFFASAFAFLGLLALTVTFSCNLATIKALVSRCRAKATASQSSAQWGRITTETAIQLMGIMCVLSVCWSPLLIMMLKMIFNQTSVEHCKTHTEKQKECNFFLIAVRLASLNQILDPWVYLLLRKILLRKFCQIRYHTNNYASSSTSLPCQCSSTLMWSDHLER
Kind of experiment: FLIPR calcium signal study, hEP3A/Gqi5. Conditions: HEK-293(EBNA) cells expressing recombinant human receptor, read-out: HEP3A functional data. The procedure: as §1, §2, §3
Cells were seeded at a density of 5×10^4 cells per well in Biocoat® Poly-D-lysine-coated black-wall, clear-bottom 96-well plates (Becton-Dickinson) and allowed to attach overnight in an incubator at 37° C. Cells were then washed two times with HBSS-HEPES buffer (Hanks Balanced Salt Solution without bicarbonate and phenol red, 20 mM HEPES, pH 7.4) using a Denley Cellwash plate washer (Labsystems). […]
Cells were excited with an Argon laser at 488 nm, and emission was measured through a 510-570 nm bandwidth emission filter (FLIPR™, Molecular Devices, Sunnyvale, Calif.). […] The peak increase in fluorescence intensity was recorded for each well. […] The peak fluorescence change in each drug-containing well was then expressed relative to the controls. […]

Here are results for 16 molecules from patent US20060035961A1, “Cyclopentane heptan(ENE)OIC acid, 2-heteroarylalkenyl derivatives as therapeutic agents” (ALLERGAN, INC., priority 2004, published 2006).

T4 sequence (P43119 whole entry): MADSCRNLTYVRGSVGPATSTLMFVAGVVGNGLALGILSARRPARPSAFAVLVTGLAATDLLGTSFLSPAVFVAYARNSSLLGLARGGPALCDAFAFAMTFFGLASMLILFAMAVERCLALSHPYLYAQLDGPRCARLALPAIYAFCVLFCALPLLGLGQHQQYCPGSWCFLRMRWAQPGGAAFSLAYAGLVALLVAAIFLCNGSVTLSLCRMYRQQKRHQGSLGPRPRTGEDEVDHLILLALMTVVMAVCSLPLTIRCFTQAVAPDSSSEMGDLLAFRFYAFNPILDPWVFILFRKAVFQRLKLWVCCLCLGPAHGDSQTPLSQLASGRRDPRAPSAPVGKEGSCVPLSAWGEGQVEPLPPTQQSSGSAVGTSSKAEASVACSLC
T1 sequence (P43088 whole entry): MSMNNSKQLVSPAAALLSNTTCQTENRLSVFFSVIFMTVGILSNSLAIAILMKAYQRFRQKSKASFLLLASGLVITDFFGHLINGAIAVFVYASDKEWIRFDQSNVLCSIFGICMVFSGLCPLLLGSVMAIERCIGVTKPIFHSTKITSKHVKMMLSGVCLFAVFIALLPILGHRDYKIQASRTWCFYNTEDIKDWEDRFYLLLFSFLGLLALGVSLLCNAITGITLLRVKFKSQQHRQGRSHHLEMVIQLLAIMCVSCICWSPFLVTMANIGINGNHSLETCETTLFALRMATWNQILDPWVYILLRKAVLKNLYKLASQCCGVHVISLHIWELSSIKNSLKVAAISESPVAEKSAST

On to `Cc1sc(CC[C@H](O)/C=C/[C@H]2C(C)CC(O)[C@@H]2C/C=C\CCCC(N)=O)cc1Br` (stereo partly drawn) [Compound 17L, (Z)-7-{(1R,2R)-2-[(E)-(S)-5-(4-Bromo-5-methyl-thiophen-2-yl)-3-hydroxy-pent-1-enyl]-5-hydroxy-3-methyl-cyclopentyl}-hept-5-enoic acid amide], for which, on hFP, the EC50 was above 10 µM.

Consider `CCNC(=O)CCC/C=C\C[C@H]1C(O)CC(C)[C@@H]1/C=C/[C@@H](O)CCc1cc(Br)c(C)s1` (stereo partly drawn) [Compound 15L, (Z)-7-{(1R,2R)-2-[(E)-(S)-5-(4-Bromo-5-methyl-thiophen-2-yl)-3-hydroxy-pent-1-enyl]-5-hydroxy-3-methyl-cyclopentyl}-hept-5-enoic acid ethylamide], for which, at hEP4/Gqs5, the EC50 is above 10 µM.

In the case of `Cc1sc(CC[C@H](O)/C=C/[C@H]2CCC(O)[C@@H]2C/C=C\CCCC(N)=O)cc1Br` (stereo partly drawn) [Compound 23H, (Z)-7-{(1R,2R)-2-[(E)-(S)-5-(4-Bromo-5-methyl-thiophen-2-yl)-3-hydroxy-pent-1-enyl]-5-hydroxy-cyclopentyl}-hept-5-enoic acid amide], the EC50 on hFP is above 10 µM; on hTP, 2.13 µM.

In the case of `CCNC(=O)CCC/C=C\C[C@@H]1[C@@H](/C=C/[C@@H](O)CCc2cc(Br)c(C)s2)[C@H](O)C[C@@H]1O` [Control, reference compound], the EC50 on hFP was found to be 2.14 µM.

In the case of `C=CC1CC(O)[C@H](C/C=C\CCCC(N)=O)[C@H]1/C=C/[C@@H](O)CCc1cc(Br)c(C)s1` (stereo partly drawn) [Compound 13H, (Z)-7-{(1R,2S)-2-[(E)-(S)-5-(4-Bromo-5-methyl-thiophen-2-yl)-3-hydroxy-pent-1-enyl]-5-hydroxy-3-vinyl-cyclopentyl}-hept-5-enoic acid amide], the EC50 was 0.584 µM on hFP, above 10 µM on hIP, 7.08 µM on hEP3A/Gqi5 and 2.52 µM on hTP.

As for `Cc1sc(CC[C@H](O)/C=C/[C@H]2C(C)CC(O)[C@@H]2C/C=C\CCCC(N)=O)cc1Br` (stereo partly drawn) [Compound 17H, (Z)-7-{(1R,2R)-2-[(E)-(S)-5-(4-Bromo-5-methyl-thiophen-2-yl)-3-hydroxy-pent-1-enyl]-5-hydroxy-3-methyl-cyclopentyl}-hept-5-enoic acid amide], the EC50 is at least 10 µM at hFP, above 10 µM on hEP4/Gqs5 and 1.95 µM at hTP.

Consider `CCNC(=O)CCC/C=C\C[C@H]1C(O)CC[C@@H]1/C=C/[C@@H](O)CCc1cc(Br)c(C)s1` (stereo partly drawn) [Compound 21H, (Z)-7-{(1R,2R)-2-[(E)-(S)-5-(4-Bromo-5-methyl-thiophen-2-yl)-3-hydroxy-pent-1-enyl]-5-hydroxy-cyclopentyl}-hept-5-enoic acid ethylamide], for which the EC50 at hFP and at hTP was above 10 µM in each case.

Consider `Cc1sc(CC[C@H](O)/C=C/[C@H]2C(C)CC(O)[C@@H]2C/C=C\CCCC(=O)NCCO)cc1Br` (stereo partly drawn) [Compound 16H, (Z)-7-{(1R,2R)-2-[(E)-(S)-5-(4-Bromo-5-methyl-thiophen-2-yl)-3-hydroxy-pent-1-enyl]-5-hydroxy-3-methyl-cyclopentyl}-hept-5-enoic acid (2-hydroxy-ethyl)-amide], for which the EC50 at hFP was at least 10 µM; on hTP it was 1.38 µM.

Regarding `CCC1CC(O)[C@H](C/C=C\CCCC(N)=O)[C@H]1/C=C/[C@@H](O)CCc1cc(Br)c(C)s1` (stereo partly drawn) [Compound 20H, (Z)-7-{(1R,2R)-2-[(E)-(S)-5-(4-Bromo-5-methyl-thiophen-2-yl)-3-hydroxy-pent-1-enyl]-3-ethyl-5-hydroxy-cyclopentyl}-hept-5-enoic acid amide], the results for the EC50 on hFP, at hEP3A/Gqi5 and on hTP were 5.42 µM, above 10 µM and above 10 µM, respectively.

`C=CC1CC(O)[C@H](C/C=C\CCCC(=O)NCCO)[C@H]1/C=C/[C@@H](O)CCc1cc(Br)c(C)s1` (stereo partly drawn) [Compound 12L, (Z)-7-{(1R,2S)-2-[(E)-(S)-5-(4-Bromo-5-methyl-thiophen-2-yl)-3-hydroxy-pent-1-enyl]-5-hydroxy-3-vinyl-cyclopentyl}-hept-5-enoic acid (2-hydroxy-ethyl)-amide]: the EC50 on hFP, on hIP and on hTP was above 10 µM in each case.

With `Cc1sc(CC[C@H](O)/C=C/[C@H]2CCC(O)[C@@H]2C/C=C\CCCC(=O)NCCO)cc1Br` (stereo partly drawn) [Compound 22H, (Z)-7-{(1R,2R)-2-[(E)-(S)-5-(4-Bromo-5-methyl-thiophen-2-yl)-3-hydroxy-pent-1-enyl]-5-hydroxy-cyclopentyl}-hept-5-enoic acid (2-hydroxy-ethyl)-amide], the EC50 at hFP and on hTP was above 10 µM each time.

Turning to `C=CC1CC(O)[C@H](C/C=C\CCCC(=O)NCC)[C@H]1/C=C/[C@@H](O)CCc1cc(Br)c(C)s1` (stereo partly drawn) [Compound 14H, (Z)-7-{(1R,2S)-2-[(E)-(S)-5-(4-Bromo-5-methyl-thiophen-2-yl)-3-hydroxy-pent-1-enyl]-5-hydroxy-3-vinyl-cyclopentyl}-hept-5-enoic acid ethylamide], at hFP, the EC50 is above 10 µM.

As to `C=CC1CC(O)[C@H](C/C=C\CCCC(=O)NCCO)[C@H]1/C=C/[C@@H](O)CCc1cc(Br)c(C)s1` (stereo partly drawn) [Compound 12H, (Z)-7-{(1R,2S)-2-[(E)-(S)-5-(4-Bromo-5-methyl-thiophen-2-yl)-3-hydroxy-pent-1-enyl]-5-hydroxy-3-vinyl-cyclopentyl}-hept-5-enoic acid (2-hydroxy-ethyl)-amide], the EC50 at hFP, at hEP4/Gqs5, on hIP and at hTP was above 10 µM in each case.

Consider `CCNC(=O)CCC/C=C\C[C@H]1C(O)CC(C)[C@@H]1/C=C/[C@@H](O)CCc1cc(Br)c(C)s1` (stereo partly drawn) [Compound 15H, (Z)-7-{(1R,2R)-2-[(E)-(S)-5-(4-Bromo-5-methyl-thiophen-2-yl)-3-hydroxy-pent-1-enyl]-5-hydroxy-3-methyl-cyclopentyl}-hept-5-enoic acid ethylamide], for which the EC50 on hFP, at hEP4/Gqs5 and on hTP was above 10 µM throughout.

For `C=CC1CC(O)[C@H](C/C=C\CCCC(N)=O)[C@H]1/C=C/[C@@H](O)CCc1cc(Br)c(C)s1` (stereo partly drawn) [Compound 13L, (Z)-7-{(1R,2S)-2-[(E)-(S)-5-(4-Bromo-5-methyl-thiophen-2-yl)-3-hydroxy-pent-1-enyl]-5-hydroxy-3-vinyl-cyclopentyl}-hept-5-enoic acid amide], at hEP4/Gqs5, the EC50 was above 10 µM.

`Cc1sc(CC[C@H](O)/C=C/[C@H]2C(C)CC(O)[C@@H]2C/C=C\CCCC(=O)NCCO)cc1Br` (stereo partly drawn) [Compound 16L, (Z)-7-{(1R,2R)-2-[(E)-(S)-5-(4-Bromo-5-methyl-thiophen-2-yl)-3-hydroxy-pent-1-enyl]-5-hydroxy-3-methyl-cyclopentyl}-hept-5-enoic acid (2-hydroxy-ethyl)-amide]: the EC50 at hEP4/Gqs5 was above 10 µM.
